Assay results as given in article PMC8962522, “Direct interaction of TrkA/CD44v3 is essential for NGF-promoted aggressiveness of breast cancer cells” (Journal of Experimental & Clinical Cancer Research : CR, 2022).

Tests used:
[1] = cited from earlier work
Source text: With more functions than those of a membrane receptor, CD44 is a multifunctional platform implicated in numerous physiological and disease mechanisms. In cancer, it has many functions (e.g., adhesion, migration/invasion, growth, differentiation, and resistance to therapies) depending on the splice variant expressed, corresponding ligands, posttranscriptional modifications, and association with growth factors and different membrane proteins.

TrkA in MDA-MB-231 cells = experiment: Immunofluorescence, membrane TrkA; format: cell-based; settings: MDA-MB-231, immunofluorescence/confocal, NGF; "same trend" = as CD44v3: increased until 15 min and then decreased
Source text: The CD44v3- and CD44v6-containing isoforms expressing respectively exon 8 and 11(Fig. 1A) can interact with growth factor receptors. Using COS-7 cells with low CD44 and TrkA expression (Supplementary Fig. 1A-D), we differentially expressed TrkA and CD44s or a CD44 variant, either CD44v3 or CD44v6 (Fig. 1B, supplementary Fig. 2). […] Additionally, we evaluated the expression of TrkA and CD44v3 at the membrane level or in cells by immunofluorescence in MDA-MB-231 cells.
Supplementary file 13046_2022_2314_MOESM3_ESM.pdf: Additional file 3: Supplementary Figure 1. Validation of the ectopic expression of CD44 and/or TrkA in COS-7 cells. The expression of all CD44 isoforms (A), CD44 variant 3 (B), CD44 variant 6 (C) and TrkA ([…]; D) was evaluated by RT–qPCR (normalized using PUM-1). No expression of CD44, CD44 variants [3 or 6] or TrkA was detected in COS-7 cells (A-D) compared with that in cells transfected with the expression plasmid carrying each protein. […] Quantification of the PLA results was performed using ImageJ software (30 randomly chosen fields per condition of three different experiments). […] CD44v3 and CD44v6 levels at the plasma membrane were assessed by flow cytometry (A-D). The plasma membrane and total TrkA and CD44v3 levels were also quantified by confocal microscopy (E-H). […] The CD44v3/NGF interaction was evaluated using microscale thermophoresis (MST). […]

Substance: NGF: recombinant human β-NGF (Alomone Labs, Israel)
- binding to heparin (in words) [1]: does not bind heparin
- level of TrkA at the membrane (in words) (TrkA in MDA-MB-231 cells): the membrane level of TrkA followed the same trend
